Key:
Assay in all cases: relative viability (nuclei count vs DMSO), 5 days (fraction); higher = more cells survive
EHT 1864 + OSI-027 = compound: C1COCCN1CC2=CC(=O)C(=CO2)OCCCCCSC3=C4C=CC(=CC4=NC=C3)C(F)(F)F [EHT 1864] + COc1cccc2cc(-c3nc([C@H]4CC[C@H](C(=O)O)CC4)n4ncnc(N)c34)[nH]c12 [OSI-027] (partner 0.5 µM)
How it was run: (§1)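 The day after seeding in 1536-well plates, lung cancer cell lines were treated by pin tool with a single drug, or with a fixed anchor-drug dose together with five library-drug doses (not always all listed) in √10 steps. After 5 days, a combined fix-and-stain solution (final 0.05% Triton X-100, 1% formaldehyde, 1 ug/ml Hoechst) was added. Nuclei counted on 4× images gave relative viability as treated counts over vehicle counts, reported as the median of duplicate plates.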

EHT 1864 + Lapatinib = compound: C1COCCN1CC2=CC(=O)C(=CO2)OCCCCCSC3=C4C=CC(=CC4=NC=C3)C(F)(F)F [EHT 1864] + CS(=O)(=O)CCNCc1ccc(-c2ccc3ncnc(Nc4ccc(OCc5cccc(F)c5)c(Cl)c4)c3c2)o1 [Lapatinib] (partner 2 µM)
How it was run: as §1

EHT 1864 + Linsitinib = compound: C1COCCN1CC2=CC(=O)C(=CO2)OCCCCCSC3=C4C=CC(=CC4=NC=C3)C(F)(F)F [EHT 1864] + C[C@]1(O)C[C@@H](c2nc(-c3ccc4ccc(-c5ccccc5)nc4c3)c3c(N)nccn32)C1 [Linsitinib] (partner 1 µM)
How it was run: as §1

EHT 1864 + Alpelisib = compound: C1COCCN1CC2=CC(=O)C(=CO2)OCCCCCSC3=C4C=CC(=CC4=NC=C3)C(F)(F)F [EHT 1864] + Cc1nc(NC(=O)N2CCC[C@H]2C(N)=O)sc1-c1ccnc(C(C)(C)C(F)(F)F)c1 [Alpelisib] (partner 2 µM)
How it was run: as §1

Row | Cell Line | relative viability (EHT 1864 + OSI-027; first compound 0.04 µM) | relative viability (EHT 1864 + OSI-027; first compound 0.1265 µM) | relative viability (EHT 1864 + OSI-027; first compound 0.4 µM) | relative viability (EHT 1864 + OSI-027; first compound 1.265 µM) | relative viability (EHT 1864 + OSI-027; first compound 4 µM) | relative viability (EHT 1864 + Lapatinib; first compound 0.04 µM) | relative viability (EHT 1864 + Lapatinib; first compound 0.1265 µM) | relative viability (EHT 1864 + Lapatinib; first compound 0.4 µM) | relative viability (EHT 1864 + Lapatinib; first compound 1.265 µM) | relative viability (EHT 1864 + Lapatinib; first compound 4 µM) | relative viability (EHT 1864 + Linsitinib; first compound 0.04 µM) | relative viability (EHT 1864 + Linsitinib; first compound 0.1265 µM) | relative viability (EHT 1864 + Linsitinib; first compound 0.4 µM) | relative viability (EHT 1864 + Linsitinib; first compound 1.265 µM) | relative viability (EHT 1864 + Linsitinib; first compound 4 µM) | relative viability (EHT 1864 + Alpelisib; first compound 0.04 µM) | relative viability (EHT 1864 + Alpelisib; first compound 0.1265 µM) | relative viability (EHT 1864 + Alpelisib; first compound 0.4 µM) | relative viability (EHT 1864 + Alpelisib; first compound 1.265 µM) | relative viability (EHT 1864 + Alpelisib; first compound 4 µM)
1 | NCI-H2126 | 0.738 | 0.667 | 0.729 | 0.74 | 0.725 | 0.779 | 0.723 | 0.759 | 0.798 | 0.697 | 0.733 | 0.691 | 0.746 | 0.726 | 0.72 | 0.755 | 0.757 | 0.718 | 0.801 | 0.748
2 | NCI-H2228 | 0.637 | 0.48 | 0.666 | 0.522 | 0.588 | 1.08 | 0.68 | 1.03 | 1.13 | 1.02 | 0.655 | 0.635 | 0.802 | 0.661 | 0.478 | 0.776 | 0.813 | 0.732 | 0.594 | 0.713
3 | NCI-H2347 | 0.389 | 0.369 | 0.442 | – | 0.396 | 0.961 | 0.638 | 0.814 | 0.793 | 1.12 | 0.92 | 0.741 | 0.95 | 0.941 | 0.999 | 1.02 | 0.868 | 0.989 | 1.03 | 1.2
4 | NCI-H2405 | 0.655 | 0.647 | 0.642 | 0.535 | 0.714 | 1.1 | 1.02 | 1.11 | – | 1.13 | 0.922 | 0.933 | 1.06 | – | 0.851 | 0.789 | 0.767 | 0.877 | – | 0.719

Source: the supplement of paper PMC10307832
